Results on 5 molecules are retold here after ChEMBL document CHEMBL1833828, “Efficient conversion of a nonselective norepinephrin reuptake inhibitor into a dual muscarinic antagonist-β₂-agonist for the treatment of chronic obstructive pulmonary disease” (J Med Chem, 2011).

A short description of data set [1]: Metabolic stability in human liver microsomes. In kind it is ADME, Microsome. To be noted: read-out: Stability. (Liver microsomes are a subcellular fraction often used to study metabolism.)
Data set [2] addresses T1, Muscarinic acetylcholine receptor M3 (Homo sapiens, UniProt P20309). Description: Displacement of [3H]N-methylscopolamine from human M3 receptor. For orientation: Displacement assays read how much labelled ligand stays bound in the presence of the test substance.
Target sequence in this assay (P20309 whole entry): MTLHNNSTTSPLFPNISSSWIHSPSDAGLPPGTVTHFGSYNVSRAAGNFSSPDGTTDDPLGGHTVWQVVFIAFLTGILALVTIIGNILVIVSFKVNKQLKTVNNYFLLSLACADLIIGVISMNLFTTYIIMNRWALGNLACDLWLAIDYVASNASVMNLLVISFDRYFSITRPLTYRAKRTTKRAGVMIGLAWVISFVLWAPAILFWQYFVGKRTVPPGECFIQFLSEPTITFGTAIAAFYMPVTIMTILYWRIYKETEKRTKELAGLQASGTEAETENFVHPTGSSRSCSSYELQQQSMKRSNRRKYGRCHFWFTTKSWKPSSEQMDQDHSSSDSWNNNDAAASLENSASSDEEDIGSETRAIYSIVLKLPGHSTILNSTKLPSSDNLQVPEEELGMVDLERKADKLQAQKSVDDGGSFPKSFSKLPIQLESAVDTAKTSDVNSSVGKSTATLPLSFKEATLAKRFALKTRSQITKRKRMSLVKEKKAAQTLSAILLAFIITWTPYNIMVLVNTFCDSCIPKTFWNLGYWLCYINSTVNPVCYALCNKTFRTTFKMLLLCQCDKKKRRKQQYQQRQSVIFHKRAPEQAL
Data set [3] in a line: Lipophilicity, log D of the compound. The format is physicochemical. To be noted: octanol/water.
Data set [4] has as its target T2, Sodium-dependent noradrenaline transporter (Homo sapiens, UniProt P23975). The experiment in a line: Displacement of [3H]nisoxetine from human NET receptor.
Data set [5] has as its target T2, Sodium-dependent noradrenaline transporter. Description: Binding affinity at human NET receptor at 10 uM.
The target of data set [6] is Beta-1 adrenergic receptor (Homo sapiens, UniProt P08588). The experiment in a line: Agonist activity at beta-1 adrenergic receptor. The format is functional.
Sequence of Beta-1 adrenergic receptor (P08588 whole entry): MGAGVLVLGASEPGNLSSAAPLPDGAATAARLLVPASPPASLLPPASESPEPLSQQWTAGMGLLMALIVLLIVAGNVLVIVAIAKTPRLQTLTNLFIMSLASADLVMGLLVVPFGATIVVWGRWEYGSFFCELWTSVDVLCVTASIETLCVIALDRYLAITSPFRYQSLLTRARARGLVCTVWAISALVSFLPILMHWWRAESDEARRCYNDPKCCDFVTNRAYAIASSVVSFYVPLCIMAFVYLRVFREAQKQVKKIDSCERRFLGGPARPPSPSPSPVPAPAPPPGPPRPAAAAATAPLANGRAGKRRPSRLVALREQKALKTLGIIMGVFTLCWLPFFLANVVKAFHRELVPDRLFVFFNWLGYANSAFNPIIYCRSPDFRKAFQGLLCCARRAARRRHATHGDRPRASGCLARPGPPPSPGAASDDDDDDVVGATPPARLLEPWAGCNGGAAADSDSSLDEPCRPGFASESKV
Data set [7] concerns the target T3, Beta-2 adrenergic receptor (Homo sapiens, UniProt P07550). The experiment in a line: Agonist activity at human cloned beta-2 adrenergic receptor expressed in CHO cells after compound wash-out relative to unwashed cells. In kind it is functional, cell-based.
Target sequence in this assay (P07550 whole entry, looked up): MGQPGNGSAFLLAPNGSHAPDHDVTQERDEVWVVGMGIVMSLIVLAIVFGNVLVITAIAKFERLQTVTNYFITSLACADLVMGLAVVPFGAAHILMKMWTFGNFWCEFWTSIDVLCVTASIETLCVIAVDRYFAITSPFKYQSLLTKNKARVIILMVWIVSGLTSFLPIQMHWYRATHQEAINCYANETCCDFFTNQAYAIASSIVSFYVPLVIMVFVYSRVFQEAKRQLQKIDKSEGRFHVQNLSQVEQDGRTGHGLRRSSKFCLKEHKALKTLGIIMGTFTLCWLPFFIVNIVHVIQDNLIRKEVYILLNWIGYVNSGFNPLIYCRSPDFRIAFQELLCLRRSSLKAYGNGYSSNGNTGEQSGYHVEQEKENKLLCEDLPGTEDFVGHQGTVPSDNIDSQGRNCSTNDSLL
Data set [8] is described as follows: Bronchodilatory action against electrical field-stimulated constriction in guinea pig trachea assessed as time taken for the muscle tone at EC70 to recover by 50% of inhibition induced. The format is functional, Cavia porcellus.
The target of data set [9] is T3, Beta-2 adrenergic receptor. The experiment in a line: Agonist activity at human beta-2 adrenergic receptor expressed in CHO cells assessed as induction of intracellular cAMP production. The format is functional, cell-based. Background: Changes in cAMP serve as a functional read-out for many G protein-coupled receptors.
Target sequence in this assay (P07550 whole entry): as the sequence (P07550 whole entry, looked up) above
A short description of data set [10]: Permeability across human Caco2 cells. To be noted: Caco-2, read-out: permeability. The format is ADME, cell-based.
Data set [11] is described as follows: Bronchodilatory action in guinea pig trachea assessed as inhibition of electrical field-stimulated acetylcholine release in the presence of beta-2 adrenergic receptor antagonist propranolol. The format is functional, tissue-based, Cavia porcellus.
The target in data set [12] is T1, Muscarinic acetylcholine receptor M3. The experiment in a line: Antagonist activity at human cloned M3 receptor assessed as time taken to reach 50% of total [3H]NMS for solvent treated membranes by dilution-offset method. The format is functional.
Target sequence in this assay (P20309 whole entry, looked up): as the sequence (P20309 whole entry) above
Another data set is filed under the species Cavia porcellus. Description: Bronchodilatory action in guinea pig trachea assessed as inhibition of electrical field-stimulated acetylcholine release. The format is functional.
Data set [13] is described as follows: Bronchodilatory action against electrical field-stimulated constriction in guinea pig trachea assessed as time taken for the muscle tone at EC70 to recover by 50% of inhibition induced in the presence of beta-2 adrenergic receptor antagonist propranolol. The format is functional, Cavia porcellus.

Structures are written as SMILES.

T2 sequence (P23975 whole entry): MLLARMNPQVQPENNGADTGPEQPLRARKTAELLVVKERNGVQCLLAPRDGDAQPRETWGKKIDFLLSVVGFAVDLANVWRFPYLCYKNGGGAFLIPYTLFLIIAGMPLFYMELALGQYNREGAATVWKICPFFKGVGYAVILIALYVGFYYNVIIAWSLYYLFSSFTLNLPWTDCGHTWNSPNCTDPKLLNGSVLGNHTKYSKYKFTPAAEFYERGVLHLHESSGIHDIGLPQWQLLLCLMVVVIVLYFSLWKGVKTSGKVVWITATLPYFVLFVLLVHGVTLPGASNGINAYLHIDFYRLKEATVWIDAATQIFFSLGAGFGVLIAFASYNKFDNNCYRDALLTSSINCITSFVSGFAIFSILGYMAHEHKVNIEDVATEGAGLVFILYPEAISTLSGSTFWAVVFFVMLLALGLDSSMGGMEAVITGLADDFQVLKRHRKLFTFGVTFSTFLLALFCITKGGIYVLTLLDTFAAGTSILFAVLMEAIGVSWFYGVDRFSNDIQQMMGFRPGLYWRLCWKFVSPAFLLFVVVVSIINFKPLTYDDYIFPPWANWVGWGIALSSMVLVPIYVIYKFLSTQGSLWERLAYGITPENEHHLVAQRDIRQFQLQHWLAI

The Ki is a measure of affinity in units of concentration, obtained from inhibition or displacement. Higher therefore signals weaker binding. As usually defined, the logD is lipophilicity at a set pH, counting ionised and neutral species. `Oc1cccc(F)c1-n1nc(OC2CCNCC2)c2c1CCCC2`: in data set [1], the microsomal CLint was less than 8 µL/min/mg. For the same molecule, the Ki in [2] was found to be 2.5 nM; in [4], 2900 nM. This molecule displayed a logD in data set [3] of 0.3.

For `Fc1cccc(F)c1-n1nc(OC2CCNCC2)c2ccccc21`, the microsomal CLint in [1] is less than 8 µL/min/mg. Moreover, the values for the Ki in data set [2] and in data set [4] were 49 nM and 6.8 nM, respectively. The molecule also came in with a pH-dependent lipophilicity (logD) in data set [3] of 1.4.

As for `Cc1ccc(O)c([C@H](CCN(C(C)C)C(C)C)c2ccccc2)c1` [TOLTERODINE], the microsomal CLint in [1] was less than 8 µL/min/mg. In data set [5], this molecule registered an Activity of 15%. In data set [3], this molecule had a logD of 1.8.

For the molecule `Oc1cccc(F)c1-n1nc(OC2CCNCC2)c2ccccc21`, the microsomal CLint in data set [1] is less than 8 µL/min/mg. Besides, the Ki in data set [2] worked out at 10 nM. For the same molecule, the logD in data set [3] was found to be 0.6.

In general, EC50 refers to the midpoint of the concentration-response curve. Turning to `O=c1ccc2c([C@@H](O)CNCCCCCCCCCN3CCC(Oc4nn(-c5c(O)cccc5F)c5c4CCCC5)CC3)ccc(O)c2[nH]1`, the EC50 in data set [6] is greater than 10000 nM; in data set [9] it was 14 nM; in data set [11] it was 27 nM; in the data set filed under Cavia porcellus, 28 nM. Besides, in data set [7], the fold change (FC) is 1.5. Further, the microsomal CLint in [1] came to 25 µL/min/mg. Also, the Time in data set [8] and in [13] was greater than 16 h throughout. This molecule showed an inhibition constant Ki in data set [2] of 2.2 nM. In addition, the Papp in data set [10] was less than 1 ×10⁻⁶ cm/s. In data set [3], this molecule had a logD of 2.4. The TIME in [12] is less than 0.267 h.
